In brackets after ≈: the same amount, converted by molar mass.
What was measured:
[1] = tested on: Mycobacterium tuberculosis; test: microbe, parasite or virus in culture; settings: H37Rv ATCC 27294, 168 h
Description: Antimycobacterial activity against Mycobacterium tuberculosis H37Rv ATCC 27294 after 7 days by REMA method

[2] = tested on: Mycobacterium tuberculosis; test: microbe, parasite or virus in culture; settings: 18b, 168 h
Description: Antimycobacterial activity against non-replicating streptomycin starved Mycobacterium tuberculosis 18b after 7 days by REMA method

[3] = Cytotoxicity against human HepG2 cells after 24 hrs by MTT assay; format: cell-based
[4] = Selectivity index, ratio of CC50 for human HepG2 cells to MIC90 for Mycobacterium tuberculosis H37Rv ATCC 27294; format: toxicity, cell-based; settings: read-out: Selectivity Index
[5] = Solubility of compound in water; format: physicochemical
[6] = Solubility of compound in PBS buffer; format: physicochemical
[7] = Solubility of compound in simulated gastric fluid; format: ADME, Stomach
[8] = Solubility of compound in simulated intestinal fluid; format: ADME
[9] = Cmax in Swiss mouse at 10 mg/kg, po by LC-MS/MS analysis; format: ADME, organism-based; set-up: dose 10 mg/kg, route oral; settings: in vivo
[10] = Tmax in Swiss mouse at 10 mg/kg, po by LC-MS/MS analysis; format: ADME, organism-based; settings: in vivo
[11] = AUC(0 to t) in Swiss mouse at 10 mg/kg, po by LC-MS/MS analysis; format: ADME, organism-based; settings: in vivo
[12] = Half life in Swiss mouse at 10 mg/kg, po by LC-MS/MS analysis; format: ADME, organism-based; settings: in vivo

Compound: COc1ccc(N2CCN(Cc3ccc([N+](=O)[O-])o3)CC2)cc1
- MIC90 [1]: 0.12 µM (≈ 0.0381 µg/mL)

Compound: CO[C@H]1/C=C/O[C@@]2(C)Oc3c(C)c(O)c4c(O)c(c(/C=N/N5CCN(C)CC5)c(O)c4c3C2=O)NC(=O)/C(C)=C\C=C\[C@H](C)[C@H](O)[C@@H](C)[C@@H](O)[C@@H](C)[C@H](OC(C)=O)[C@@H]1C [RIFAMPIN]
- MIC90 [1]: 0.07 µM (≈ 0.0576 µg/mL)
- MIC90 [2]: 2.4 µM (≈ 1.98 µg/mL)

Compound: O=[N+]([O-])c1ccc(CN2CCN(c3ccccc3)CC2)o1
- MIC90 [1]: 0.2 µM (≈ 0.0575 µg/mL)

Compound: O=[N+]([O-])c1ccc(CN2CCN(c3ccc(F)cc3)CC2)o1
- MIC90 [1]: 3.27 µM (≈ 0.998 µg/mL)

Compound: COc1ccccc1N1CCN(Cc2ccc([N+](=O)[O-])o2)CC1
- MIC90 [1]: 25.2 µM (≈ 8 µg/mL)

Compound: O=[N+]([O-])c1ccc(CN2CCN(c3ccccc3)CC2)s1
- MIC90 [1]: > 13.1 µM

Compound: COc1cccc(N2CCN(Cc3ccc([N+](=O)[O-])o3)CC2)c1
- CC50 at 24 h [3]: > 63 µM
- selectivity ratio [4]: > 1580
- MIC90 [1]: 0.047 µM (≈ 0.0149 µg/mL)
- MIC90 [2]: 2.11 µM (≈ 0.67 µg/mL)

Compound: O=[N+]([O-])c1ccc(CN2CCN(c3cccc(Cl)c3)CC2)o1
- MIC90 [1]: 0.37 µM (≈ 0.119 µg/mL)

Compound: CC(=O)c1ccc(N2CCN(Cc3ccc([N+](=O)[O-])s3)CC2)cc1
- MIC90 [1]: > 11.5 µM

Compound: O=[N+]([O-])c1ccc(CN2CCN(c3ccc(Cl)cc3)CC2)s1
- MIC90 [1]: > 11.8 µM

Compound: O=[N+]([O-])c1ccc(CN2CCN(S(=O)(=O)c3ccc(C(F)(F)F)cc3)CC2)o1
- MIC90 [1]: 0.5 µM (≈ 0.21 µg/mL)

Compound: O=[N+]([O-])c1ccc(S(=O)(=O)N2CCN(Cc3ccc([N+](=O)[O-])o3)CC2)cc1
- CC50 at 24 h [3]: > 50 µM
- selectivity ratio [4]: > 333
- MIC90 [1]: 0.15 µM (≈ 0.0595 µg/mL)
- MIC90 [2]: 20.1 µM (≈ 7.97 µg/mL)

Compound: O=[N+]([O-])c1ccc(CN2CCN(c3ccccc3F)CC2)o1
- MIC90 [1]: 6.55 µM (≈ 2 µg/mL)

Compound: c1ccc(N2CCN(Cc3ccco3)CC2)cc1
- MIC90 [1]: > 16.5 µM

Compound: Cc1ccc(N2CCN(Cc3ccc([N+](=O)[O-])o3)CC2)cc1
- MIC90 [1]: 13.2 µM (≈ 3.98 µg/mL)

Compound: O=[N+]([O-])c1ccc(CN2CCC(c3ccccc3)CC2)o1
- MIC90 [1]: 0.59 µM (≈ 0.169 µg/mL)

Compound: O=[N+]([O-])c1ccc(CN2CCOCC2)o1
- MIC90 [1]: 31.4 µM (≈ 6.66 µg/mL)

Compound: COc1c(N2CCNC(C)C2)c(F)cc2c(=O)c(C(=O)O)cn(C3CC3)c12 (stereo unspecified) [GATIFLOXACIN]
- MIC90 [2]: 2.66 µM (≈ 0.999 µg/mL)

Compound: CC(C)(C)c1ccc(N2CCN(Cc3ccc([N+](=O)[O-])o3)CC2)cc1
- CC50 at 24 h [3]: > 63 µM
- selectivity ratio [4]: > 700
- solubility [5]: 116 µM (≈ 40 µg/mL)
- solubility [6]: 58.2 µM (≈ 20 µg/mL)
- solubility [7]: 1170 µM (≈ 400 µg/mL)
- solubility [8]: 2.9 µM (≈ 0.996 µg/mL)
- Cmax [9]: 2.35 µM
- Tmax [10]: 15 min
- AUC(0-t) [11]: 2.99 µM·h
- half-life [12]: 242 min
- MIC90 [1]: 0.0072 µM (≈ 0.00247 µg/mL)
- MIC90 [2]: 12.6 µM (≈ 4.33 µg/mL)

Compound: Cc1ccc(S(=O)(=O)N2CCN(Cc3ccc([N+](=O)[O-])o3)CC2)cc1
- CC50 at 24 h [3]: > 54 µM
- selectivity ratio [4]: > 338
- MIC90 [1]: 0.16 µM (≈ 0.0585 µg/mL)
- MIC90 [2]: > 21.9 µM

Compound: O=[N+]([O-])c1ccc(CN2CCN(S(=O)(=O)c3ccccc3)CC2)o1
- CC50 at 24 h [3]: > 56 µM
- selectivity ratio [4]: > 329
- MIC90 [1]: 0.17 µM (≈ 0.0597 µg/mL)
- MIC90 [2]: > 22.7 µM

Compound: O=[N+]([O-])c1ccc(CN2CCN(S(=O)(=O)c3ccc(F)cc3)CC2)o1
- CC50 at 24 h [3]: > 54 µM
- selectivity ratio [4]: > 675
- solubility [5]: 108 µM (≈ 40 µg/mL)
- solubility [6]: 54.1 µM (≈ 20 µg/mL)
- solubility [7]: 2170 µM (≈ 801 µg/mL)
- solubility [8]: 13.5 µM (≈ 4.99 µg/mL)
- Cmax [9]: 3.26 µM
- Tmax [10]: 15 min
- AUC(0-t) [11]: 4.22 µM·h
- half-life [12]: 87.6 min
- MIC90 [1]: 0.08 µM (≈ 0.0295 µg/mL)
- MIC90 [2]: > 21.6 µM

Compound: COc1cccc(S(=O)(=O)N2CCN(Cc3ccc([N+](=O)[O-])o3)CC2)c1
- MIC90 [1]: 1.3 µM (≈ 0.496 µg/mL)

Compound: CC(=O)c1ccc(N2CCN(Cc3ccc([N+](=O)[O-])o3)CC2)cc1
- MIC90 [1]: 0.3 µM (≈ 0.0988 µg/mL)

Compound: Cc1cccc(N2CCN(Cc3ccc([N+](=O)[O-])o3)CC2)c1C
- MIC90 [1]: 12.7 µM (≈ 4 µg/mL)

Compound: O=[N+]([O-])c1ccc(CN2CCN(c3cccc(C(F)(F)F)c3)CC2)o1
- MIC90 [1]: 0.33 µM (≈ 0.117 µg/mL)

Compound: CC(C)(C)OC(=O)N1CCN(Cc2ccc([N+](=O)[O-])o2)CC1
- CC50 at 24 h [3]: > 64 µM
- selectivity ratio [4]: > 1600
- solubility [5]: 1290 µM (≈ 400 µg/mL)
- solubility [6]: 2570 µM (≈ 800 µg/mL)
- solubility [7]: 2570 µM (≈ 800 µg/mL)
- solubility [8]: 2570 µM (≈ 800 µg/mL)
- Cmax [9]: 3.81 µM
- Tmax [10]: 15 min
- AUC(0-t) [11]: 2.71 µM·h
- half-life [12]: 101 min
- MIC90 [1]: 0.048 µM (≈ 0.0149 µg/mL)
- MIC90 [2]: 1.6 µM (≈ 0.498 µg/mL)

Compound: O=[N+]([O-])c1ccc(CN2CCN(c3ccc(Cl)cc3)CC2)o1
- CC50 at 24 h [3]: > 58 µM
- selectivity ratio [4]: > 11600
- MIC90 [1]: 0.37 µM (≈ 0.119 µg/mL)
- MIC90 [2]: 1.4 µM (≈ 0.45 µg/mL)

Compound: O=[N+]([O-])c1ccc(CN2CCN(c3ccc(N4CCOCC4)cc3)CC2)o1
- CC50 at 24 h [3]: > 53 µM
- selectivity ratio [4]: > 2650
- solubility [5]: 2.68 µM (≈ 0.998 µg/mL)
- Cmax [9]: 5.34 µM
- Tmax [10]: 15 min
- AUC(0-t) [11]: 4.51 µM·h
- half-life [12]: 52.8 min
- MIC90 [1]: 0.02 µM (≈ 0.00745 µg/mL)
- MIC90 [2]: 0.56 µM (≈ 0.209 µg/mL)

Compound: N#Cc1cccc(N2CCN(Cc3ccc([N+](=O)[O-])o3)CC2)c1
- CC50 at 24 h [3]: > 64 µM
- selectivity ratio [4]: > 3200
- solubility [5]: 256 µM (≈ 80 µg/mL)
- solubility [6]: 256 µM (≈ 80 µg/mL)
- solubility [7]: 2560 µM (≈ 801 µg/mL)
- solubility [8]: 32 µM (≈ 9.99 µg/mL)
- MIC90 [1]: 0.019 µM (≈ 0.00593 µg/mL)
- MIC90 [2]: 1.34 µM (≈ 0.419 µg/mL)

Compound: COc1ccc(S(=O)(=O)N2CCN(Cc3ccc([N+](=O)[O-])o3)CC2)cc1
- MIC90 [1]: 0.31 µM (≈ 0.118 µg/mL)

Compound: CS(=O)(=O)N1CCN(Cc2ccc([N+](=O)[O-])o2)CC1
- MIC90 [1]: 23.1 µM (≈ 6.67 µg/mL)
